Assay results from patent publication US10138271B2, “Native and agonist CTL epitopes of the MUC1 tumor antigen” (The United States of America, as represented by the …, priority 2012, dated 2018).
One block for each sequence: values may come before it.

Experiments:
[1] = test system: MUC1-C-specific T-cell lines; test: IFN-γ release by MUC1-C-specific T-cell lines stimulated with peptide-pulsed autologous B cells (ELISA); assay type: cell-based, human; conditions: for IFN-γ: T-cell line generated with and stimulated by the same peptide, APC:T 2:1, 24 hour supernatant; for IFN-γ production by agonist peptide-specific T-cell line, agonist versus native peptide: at each peptide concentration, FIG. 1A-C
Method: Supernatants of T cells stimulated for 24 h with peptide-pulsed autologous DCs or autologous EBV-transformed B cells in IL-2-free medium at various peptide concentrations were screened for secretion of IFN-γ by ELISA kit (BioSource International, Camarillo, Calif.). Results were expressed in pg/mL.
To evaluate the specificity of these T-cell lines, an IFN-γ release assay was performed using irradiated autologous B cells pulsed with the corresponding peptide. T cells were stimulated with irradiated autologous B cells pulsed with corresponding peptide at an APC:T cell ratio of 2:1. T cells were used at a concentration of 5×10^5/mL. 24 hour culture supernatants were collected and screened for secretion of IFN-γ. T-1-P1172(1Y), T-1-P1177(10V), and T-2-P1240(1Y) cell lines produced higher levels of IFN-γ compared to T-cell lines generated using corresponding native peptides (Table 2).
Studies were then conducted to compare the ability of the native peptides and the agonist peptides, at various concentrations, to activate the agonist peptide-specific T cells.
An additional T-cell line was then established from the PBMCs of another patient (patient 3) with colon cancer from the same clinical trial described above, using P1177 and P1177(10V), designated T-3-P1177 and T-3-P1177(10V), respectively.

T-VNTR-5 T cell line = test: IFN-γ production by VNTR-5-specific T cell line stimulated with agonist or native peptide; assay type: cell-based, human; conditions: APC:T 3:1, 24 hours
Method: (§1) T-VNTR-3 (VNTR-3 agonist peptide-specific T cell line) and T-VNTR-5 (VNTR-5 agonist peptide-specific T cell line) were separately cultured at a concentration of 1×10^5 cells/mL. The ratio of APC:T cells was 3:1. The agonist or native peptides were used at various concentrations (see Tables 14 and 15). The supernatents were collected after 24 hours, and the amount of IFN-γ was determined. The VNTR-3- and VNTR-5-specific T cell lines stimulated with agonist peptides produced higher levels of IFN-γ as compared to stimulation with native peptides (see Tables 14 and 15).

HLA-A2 molecules [2] = molecular target: T1, HLA-A2 molecules (Homo sapiens, UniProt P04439, D140Y/D185E/D98H/E176V/E277Q/G131W/G231S/I119V/I121R/I166T/I218V/L300P/L318F/N151K/N90K/P208A/P217A/Q86G/Q94H/R138H/R169H/T345S); test: Peptide binding to HLA-A2: upregulation of HLA-A2 expression on T2/T2A2 cells by flow cytometry; conditions: for T2 Binding (mean fluorescence intensity): peptide 12.5 μg/mL; for T2A2 Binding (mean fluorescence intensity): peptide 25 μg/mL
T1 construct: endogenous in cells; host or cells: T2 / T2A2 cells (174CEM-T2, transport deletion mutant)
Method: Single-color flow cytometric analysis has been previously described in Guadagni et al., Cancer Res., 50: 6248-6255 (1990). Briefly, cells were washed 3 times with cold Ca2^+- and Mg2^+-free Dulbecco's phosphate-buffered saline (PBS), and then stained for 1 h at 4° C. using FITC-conjugated monoclonal antibodies anti-HLA-A2,28 (One Lambda, Inc., Canoga Park, Calif.), anti-CD3, anti-CD4, and anti-CD8 (BD Biosciences, San Jose, Calif.). Mouse IgG2a, k FITC (BD Biosciences) was used as isotype control. The cells were then washed 3 times with cold Ca2^+- and Mg2^+-free PBS, resuspended in the same buffer, and immediately analyzed using a FACScan (Becton Dickinson, Franklin Lakes, N.J.) and CellQuest software (BD Biosciences). Results were generated from data gathered from 10,000 live cells and expressed as percent-positive cells and mean fluorescence intensity (MFI). The MFI value was collected in log scale and used to express levels of fluorescence determined by measuring the average for all cells in the fluorescence dot plot.

T-VNTR-3 T cell line = test: IFN-γ production by VNTR-3-specific T cell line stimulated with agonist or native peptide; assay type: cell-based, human; conditions: APC:T 3:1, 24 hours
Method: as §1

HLA-A2 molecules [3] = molecular target: T1, HLA-A2 molecules; test: Stability of peptide/HLA-A2 complexes (percentage of remaining complexes over time); assay type: binding; conditions: time points 0, 2, 4, 6, 8, 10 h
Method: The stability of the peptide/HLA-A2 complexes of the analogs and native peptides were analyzed by determining the percentage of the remaining complexes on HLA-A2 molecules at different time points (0, 2, 4, 6, 8, and 10 h).
The stability of the peptide/HLA-A2 complexes of the analogs and native peptides was analyzed by determining the percentage of the remaining complexes on HLA-A2 molecules at different time points (0, 2, 4, 6, 8, and 10 h).

Sequence: ALAIVYLIAL [Peptide P1172]
IFN-γ [1]: 158.3 pg/mL

Sequence: APDTRPAPG [VNTR-4]
IFN-γ (T-VNTR-5 T cell line; peptide 1.56 μg/mL): 19.8 pg/mL | IFN-γ (T-VNTR-5 T cell line; peptide 3.13 μg/mL): 53.2 pg/mL | IFN-γ (T-VNTR-5 T cell line; peptide 6.25 μg/mL): 63.1 pg/mL | IFN-γ (T-VNTR-5 T cell line; peptide 12.5 μg/mL): 109.3 pg/mL | IFN-γ (T-VNTR-5 T cell line; peptide 25 μg/mL): 117.9 pg/mL

T2 Binding (mean fluorescence intensity) (HLA-A2 molecules [2]): 481.93 MFI | T2A2 Binding (mean fluorescence intensity) (HLA-A2 molecules [2]): 485.3 MFI
Sequence: GLFDEYLEMV [NGEP (P703)]

T2 Binding (mean fluorescence intensity) (HLA-A2 molecules [2]): 109.1 MFI | T2A2 Binding (mean fluorescence intensity) (HLA-A2 molecules [2]): 83.8 MFI
Sequence: HLFGYSWYK [CAP-7]

Sequence: SLSYTNPAV [Peptide P1240]
IFN-γ [1]: 437.3 pg/mL

Sequence: STAPPAHGV [VNTR-2]
IFN-γ (T-VNTR-3 T cell line; peptide 1.56 μg/mL): 29.0 pg/mL | IFN-γ (T-VNTR-3 T cell line; peptide 3.13 μg/mL): 75.8 pg/mL | IFN-γ (T-VNTR-3 T cell line; peptide 6.25 μg/mL): 127.0 pg/mL | IFN-γ (T-VNTR-3 T cell line; peptide 12.5 μg/mL): 203.0 pg/mL | IFN-γ (T-VNTR-3 T cell line; peptide 25 μg/mL): 261.0 pg/mL

Stability of peptide/HLA-A2 complexes, analog versus native peptide (HLA-A2 molecules [3]): No differences
Sequence: YLAIVYLIAL [P1172(1Y)]
IFN-γ [1]: 605.0 pg/mL | IFN-γ production by agonist peptide-specific T-cell line, agonist versus native peptide [1]: greatest level of IFN-γ production

Sequence: YLAPPAHGV [VNTR-3]
IFN-γ (T-VNTR-3 T cell line; peptide 1.56 μg/mL): 304.9 pg/mL | IFN-γ (T-VNTR-3 T cell line; peptide 3.13 μg/mL): 457.6 pg/mL | IFN-γ (T-VNTR-3 T cell line; peptide 6.25 μg/mL): 685.3 pg/mL | IFN-γ (T-VNTR-3 T cell line; peptide 12.5 μg/mL): 766.1 pg/mL | IFN-γ (T-VNTR-3 T cell line; peptide 25 μg/mL): 771.5 pg/mL | Stability of peptide/HLA-A2 complexes, analog versus native peptide (HLA-A2 molecules [3]): greater avidity for class I molecules than the native peptides

Sequence: YLDTRPAPV [VNTR-5]
IFN-γ (T-VNTR-5 T cell line; peptide 1.56 μg/mL): 205.1 pg/mL | IFN-γ (T-VNTR-5 T cell line; peptide 3.13 μg/mL): 322.0 pg/mL | IFN-γ (T-VNTR-5 T cell line; peptide 6.25 μg/mL): 452.9 pg/mL | IFN-γ (T-VNTR-5 T cell line; peptide 12.5 μg/mL): 496.2 pg/mL | IFN-γ (T-VNTR-5 T cell line; peptide 25 μg/mL): 543.7 pg/mL | Stability of peptide/HLA-A2 complexes, analog versus native peptide (HLA-A2 molecules [3]): greater avidity for class I molecules than the native peptides

Sequence: YLIALAVCQC [Peptide P1177]
IFN-γ [1]: 666.4 pg/mL

Sequence: YLIALAVCQV [P1177(10V)]
IFN-γ [1]: >1,000 pg/mL | IFN-γ production by agonist peptide-specific T-cell line, agonist versus native peptide [1]: greatest level of IFN-γ production | Stability of peptide/HLA-A2 complexes, analog versus native peptide (HLA-A2 molecules [3]): greater avidity for class I molecules than the native peptide P1177 at each time point

Stability of peptide/HLA-A2 complexes, analog versus native peptide (HLA-A2 molecules [3]): No differences
Sequence: YLSYTNPAV [P1240(1Y)]
IFN-γ [1]: >1,000 pg/mL | IFN-γ production by agonist peptide-specific T-cell line, agonist versus native peptide [1]: greatest level of IFN-γ production
